In ChEMBL document CHEMBL1136548, “1,3,4 Trisubstituted pyrrolidine CCR5 receptor antagonists bearing 4-aminoheterocycle substituted piperidine side chains” (Bioorg Med Chem Lett, 2003):

Experiments:
[1] = target: T1, C-C chemokine receptor type 5 (Homo sapiens, UniProt P51681); assay: Displacement inhibition of 125-I labeled MIP-alpha from CCR5 receptor expressed on CHO cell membranes
Target sequence in this assay (P51681 whole entry): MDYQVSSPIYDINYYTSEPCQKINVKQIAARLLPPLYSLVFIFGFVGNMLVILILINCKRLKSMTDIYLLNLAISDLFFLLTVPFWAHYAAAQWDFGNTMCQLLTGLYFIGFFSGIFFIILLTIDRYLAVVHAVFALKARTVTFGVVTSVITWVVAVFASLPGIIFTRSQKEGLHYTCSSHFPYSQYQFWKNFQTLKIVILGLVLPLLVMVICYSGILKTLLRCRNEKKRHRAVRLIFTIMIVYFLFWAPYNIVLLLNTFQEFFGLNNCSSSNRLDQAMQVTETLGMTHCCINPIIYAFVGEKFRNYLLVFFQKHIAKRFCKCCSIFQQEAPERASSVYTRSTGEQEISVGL

[2] = Pharmacokinetic parameter expressed as plasma clearance in rat; type: ADME, organism-based; conditions: read-out: Clp
[3] = Maximum plasma concentration was evaluated in rat; type: ADME, organism-based
[4] = Bioavailability in rat; type: ADME, organism-based; conditions: in vivo
[5] = Half life was evaluated in rat; type: ADME, organism-based; conditions: in vivo
[6] = target: T1, C-C chemokine receptor type 5; assay: Inhibition over 48 hr of BAL strain HIV infection of HeLa Magi cells expressing CCR5; not active; type: functional, cell-based
Target sequence in this assay (P51681 whole entry): as above

[7] = target: T1, C-C chemokine receptor type 5; assay: Inhibition over 48 hr of BAL strain HIV infection of HeLa Magi cells expressing CCR5; type: functional, cell-based
Target sequence in this assay (P51681 whole entry, looked up): as the sequence (P51681 whole entry) above

[8] = Tested for antiviral activity in peripheral blood mononuclear cells (PBMC); type: functional
[9] = target: T1, C-C chemokine receptor type 5; assay: Compound tested for inhibiting the displacement of 125-I labeled MIP-alpha from CCR5 receptor expressed on CHO cell membranes at 1000 nM
Target sequence in this assay (P51681 whole entry, looked up): as the sequence (P51681 whole entry) above

[10] = target: T1, C-C chemokine receptor type 5; assay: Inhibition over 48 hr of BAL strain HIV infection of HeLa Magi cells expressing CCR5; Not active; type: functional, cell-based
Target sequence in this assay (P51681 whole entry): as above

Row | Structure (SMILES) | IC50 [1] | clearance [2] | Cmax [3] | bioavailability [4] | other results
1 | CCCN(c1ccccn1)C1CCN(C[C@H]2CN(C(=O)C3CCC3)C[C@@H]2c2ccccc2)CC1 | 10 nM | – | – | – | –
2 | CCCN(c1ncccn1)C1CCN(C[C@H]2CN([C@H](CC3CCC3)C(=O)O)C[C@@H]2c2cccc(F)c2)CC1 | 1.8 nM | 28 mL/min/kg | 256 nM | 29% | half-life [5]: 1.1 h
3 | O=C(O)[C@@H](CC1CCC1)N1C[C@H](CN2CCC(N(CC3CC3)c3ncccn3)CC2)[C@@H](c2cccc(F)c2)C1 | 1.1 nM | 28 mL/min/kg | – | – | half-life [5]: 0.7 h
4 | C=CCN(c1ccncc1)C1CCN(C[C@H]2CN(C(=O)C3CCCCC3)C[C@@H]2c2ccccc2)CC1 | 66 nM | – | – | – | IC50 [6]: Not Active
5 | CCCN(c1nccc(C(F)(F)F)n1)C1CCN(C[C@H]2CN([C@H](CC3CCC3)C(=O)O)C[C@@H]2c2cccc(F)c2)CC1 | 1.2 nM | 13 mL/min/kg | 177 nM | 25% | half-life [5]: 1.5 h
6 | CCCN(c1ncccn1)C1CCN(C[C@H]2CN([C@@H](C(=O)O)C3CCCCC3)C[C@@H]2c2ccccc2)CC1 | 6.6 nM | 17 mL/min/kg | 49 nM | 8% | –
7 | C=CCN(c1ncccn1)C1CCN(C[C@H]2CN(C(=O)C3CCCCC3)C[C@@H]2c2ccccc2)CC1 | 12 nM | – | – | – | –
8 | CCCN(c1ncccn1)C1CCN(C[C@H]2CN([C@@H](C(=O)O)C3CCCCC3)C[C@@H]2c2cccc(F)c2)CC1 | 1.6 nM | 13 mL/min/kg | 140 nM | 20% | –
9 | C=CCN(c1ccc(C(F)(F)F)cn1)C1CCN(C[C@H]2CN(C(=O)C3CCCCC3)C[C@@H]2c2ccccc2)CC1 | 21 nM | – | – | – | –
10 | CCCN(c1ccncn1)C1CCN(C[C@H]2CN([C@H](CC3CCC3)C(=O)O)C[C@@H]2c2cccc(F)c2)CC1 | 1.2 nM | 90 mL/min/kg | – | – | half-life [5]: 0.9 h
11 | C=CCN(C(=O)OCc1ccc([N+](=O)[O-])cc1)C1CCN(C[C@H]2CN(C(=O)c3ccccc3Cl)C[C@@H]2c2ccccc2)CC1 | – | – | – | – | IC90 [7]: 1 nM; IC95 [8]: 31 nM
12 | CCCN(c1nccc(OC)n1)C1CCN(C[C@H]2CN([C@H](CC3CCC3)C(=O)O)C[C@@H]2c2cccc(F)c2)CC1 | 0.8 nM | – | – | – | –
13 | CCCCCCN(c1ccccn1)C1CCN(C[C@H]2CN(C(=O)C3CCCCC3)C[C@@H]2c2ccccc2)CC1 | – | – | – | – | inhibition [9]: 64%
14 | CCCN(c1ccccn1)C1CCN(C[C@H]2CN(C(=O)N3CCCC3)C[C@@H]2c2ccccc2)CC1 | 9 nM | – | – | – | –
15 | C=CCN(c1ccccn1)C1CCN(C[C@H]2CN(C(=O)C3CCCCC3)C[C@@H]2c2ccccc2)CC1 | 6 nM | – | – | – | –
16 | O=C(C1CCCCC1)N1C[C@H](CN2CCC(N(CC3CC3)c3ccccn3)CC2)[C@@H](c2ccccc2)C1 | 9 nM | – | – | – | –
17 | CCCN(c1ccccn1)C1CCN(C[C@H]2CN([C@@H](C(=O)O)C3CCCCC3)C[C@@H]2c2ccccc2)CC1 | 3.9 nM | 53 mL/min/kg | 53 nM | 20% | –
18 | CCN(c1ncccn1)C1CCN(C[C@H]2CN([C@H](CC3CCC3)C(=O)O)C[C@@H]2c2cccc(F)c2)CC1 | 1.5 nM | 26 mL/min/kg | 210 nM | 33% | half-life [5]: 1.1 h
19 | CCCN(c1ccccn1)C1CCN(C[C@H]2CN(C(=O)c3ccccc3Cl)C[C@@H]2c2ccccc2)CC1 | 14 nM | – | – | – | –
20 | CCCN(c1ncc(F)cn1)C1CCN(C[C@H]2CN([C@H](CC3CCC3)C(=O)O)C[C@@H]2c2cccc(F)c2)CC1 | 0.4 nM | – | – | – | –
21 | C=CCN(c1cccnc1)C1CCN(C[C@H]2CN(C(=O)C3CCCCC3)C[C@@H]2c2ccccc2)CC1 | 23 nM | – | – | – | –
22 | O=C(C1CCCCC1)N1C[C@H](CN2CCC(N(Cc3ccccc3)c3ccccn3)CC2)[C@@H](c2ccccc2)C1 | – | – | – | – | inhibition [9]: 78%
23 | CCCN(c1ncc(C(F)(F)F)cn1)C1CCN(C[C@H]2CN([C@H](CC3CCC3)C(=O)O)C[C@@H]2c2cccc(F)c2)CC1 | 0.5 nM | 9 mL/min/kg | 433 nM | 72% | half-life [5]: 2.8 h
24 | CCCN(c1cncnc1)C1CCN(C[C@H]2CN([C@H](CC3CCC3)C(=O)O)C[C@@H]2c2cccc(F)c2)CC1 | 1.7 nM | 81 mL/min/kg | 28 nM | 8% | half-life [5]: 0.3 h
25 | CCCN(c1ccccn1)C1CCN(C[C@H]2CN(C(=O)C3CCCCC3)C[C@@H]2c2ccccc2)CC1 | 12 nM | – | – | – | –
26 | CCCN(c1cccnc1)C1CCN(C[C@H]2CN([C@@H](C(=O)O)C3CCCCC3)C[C@@H]2c2ccccc2)CC1 | 5 nM | 106 mL/min/kg | 19 nM | 8% | –
27 | C=CCN(c1ccccc1)C1CCN(C[C@H]2CN(C(=O)C3CCCCC3)C[C@@H]2c2ccccc2)CC1 | 42 nM | – | – | – | IC50 [10]: Not Active
